This note sets out measurements from PubChem BioAssay (NCI).

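Tested at 5 concentrations; 48 h exposure; 96-well plates; endpoints linearly interpolated, else capped at highest concentration. Definition used: TGI = concentration required for complete inhibition of growth.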

One test concerns NCI-H522 lung. The experiment in a line: NCI tumour cell line growth inhibition, 48 h.
The molecule `COc1ccc(C2=C(Cl)C(=O)O/C2=C\c2ccc(OC)c(Br)c2)cc1Cl` came in with a TGI of 57.5 µM.

`CNC(=S)NNc1ncnc2c1c(-c1ccc(Cl)cc1)cn2-c1ccc(C)cc1` came in with a TGI of 20.7 µM.

In the case of `CCCCCCCCCCCCNC(=O)CCC(NC(=O)c1ccc(N(C)Cc2cnc3nc(N)nc(N)c3n2)cc1)C(=O)NCCCCCCCCCCCC` (stereo unspecified), the TGI is more than 100 µM.

`Clc1cc(C(c2cc(Cl)sc2Cl)c2cc(Cl)sc2Cl)c(Cl)s1` gave a TGI of more than 100 µM.

For `COc1cc(OC)cc(Oc2nc3cc(F)c(F)cc3nc2-c2ccccc2)c1`, the TGI was more than 100 µM.

As to `Cc1cc(S(=O)(=O)Nc2n[nH]c(Nc3ccccc3)n2)c(SCC(=O)O)cc1Cl`, the TGI was more than 100 µM.

The molecule `NCCN(CCN(C(=O)Nc1ccccc1)c1ccccc1)C(=O)Nc1ccccc1` had a TGI of 41.1 µM.

Consider `C[C@H](c1ccccc1)N1C(=O)[C@@H](OCc2ccccc2)[C@H]1[C@H](COC(=O)COCc1ccccc1)OCc1ccccc1`, for which the TGI is more than 100 µM.

For another test, the system named is SK-MEL-5 melanoma. As to the kind of experiment: NCI tumour cell line growth inhibition, 48 h.
`Cc1ccc2c(c1C)CC1(Cc3c(C)ccc(C)c3C1=O)C2=O` (stereo unspecified) showed a TGI of more than 100 µM.

`O=CN1CCN(C(=O)c2ccco2)C1=S` had a TGI of 29.1 µM.

`CC(=O)C1(O)CCC2(O)C3(O)CC=C4CC(O)CCC4(C)C3CC(OC(=O)c3ccc(O)cc3)C12C` (stereo unspecified) came in with a TGI of more than 100 µM.

As to `Clc1ccc(OCc2nnc(COc3ccc(OCc4nnc(COc5ccc(Cl)cc5Cl)o4)c(Cl)c3)o2)c(Cl)c1`, the TGI is more than 100 µM.

Molecule `O=C1/C(=C/c2ccncc2)C(n2cccc2)c2c(Br)sc(Br)c21` (stereo unspecified) registered a TGI of 27.6 µM.

`C=C1CC(COc2ccc3c(C)c(C)c(=O)oc3c2C)(c2ccccc2)OC1=O` (stereo unspecified) yielded a TGI of 3.23 µM.

For the molecule `CC(=O)OCC(=O)O[C@@H]1[C@H]2[C@@H](OC(=O)c3ccccc3)[C@@H](C)C[C@]2(O)[C@H](OC(C)=O)[C@@]2(C)C[C@]1(OC(C)=O)C[C@H]1C(=O)C(C)(C)[C@@H](OC(C)=O)[C@@H]12`, the TGI was more than 25 µM.

As to `O=C(Sc1c(-c2ccccc2)c(=O)n(-c2ccccc2)c(=S)n1-c1ccccc1)c1ccco1`, the TGI was more than 100 µM.

Regarding `Cn1nc2c(c1N)Cc1c(nn(C)c1N)-c1ccccc1-2`, the TGI is more than 100 µM.

In turn, `O=c1ccn(-c2ccccn2)c(=O)n1-c1ccccn1` displayed a TGI of more than 100 µM.

With `O=C1NC(=S)NC(=O)C1C(c1ccc(Cl)cc1)C1C(=O)NC(=S)NC1=O`, the TGI was more than 100 µM.

`COC(=O)C1=C(C(=O)OC)SC(=C2SC3=C(SC(=C4SCCS4)S3)S2)S1` had a TGI of more than 100 µM.

The molecule `CCC(=O)Nc1ccc(NS(=O)(=O)c2ccc(Cl)cc2)cc1` gave a TGI of more than 100 µM.

In turn, `COc1cccc(N2C(=O)CS(=O)(=O)C2c2cccc(Oc3ccccc3)c2)c1` (stereo unspecified) registered a TGI of 22.6 µM.

Take `O=C(/C=C\Nc1ccccc1O)C(F)(F)F`: the TGI is 53.5 µM.

Consider `CC1(C)OC[C@@H](C[C@H](O)COCc2ccccc2)O1`, for which the TGI was more than 100 µM.

Regarding `NC(N)=NS(=O)(=O)c1ccc(NC(=O)c2cccc3c(NNc4ccc(S(N)(=O)=O)cc4)c4ccccc4nc23)cc1`, the TGI was more than 100 µM.

Regarding `CC(=O)N(C)c1ccc(Nc2ccnc3ccc4nn(C)nc4c23)cc1`, the TGI was 37.6 µM.

For the molecule `Nc1nncc2[nH]cnc12`, the TGI was more than 100 µM.

`S=c1[nH]nc(Cn2c3ccc(Br)cc3c3nc4ccccc4nc32)n1C1CCCCC1` had a TGI of 49.1 µM.

The molecule `COc1ccc2c(c1)-c1c(c3cc(OC)ccc3n1CCN(C)C)CC2` returned a TGI of 24.9 µM.

`COc1ccc(C2=C(Cl)C(=O)O/C2=C\c2ccc(OC)c(Br)c2)cc1Cl` gave a TGI of more than 100 µM.

In turn, `CNC(=S)NNc1ncnc2c1c(-c1ccc(Cl)cc1)cn2-c1ccc(C)cc1` registered a TGI of 20.8 µM.

As for `CCCCCCCCCCCCNC(=O)CCC(NC(=O)c1ccc(N(C)Cc2cnc3nc(N)nc(N)c3n2)cc1)C(=O)NCCCCCCCCCCCC` (stereo unspecified), the TGI was more than 100 µM.

`Clc1cc(C(c2cc(Cl)sc2Cl)c2cc(Cl)sc2Cl)c(Cl)s1`: the TGI was more than 100 µM.

Take `COc1cc(OC)cc(Oc2nc3cc(F)c(F)cc3nc2-c2ccccc2)c1`: the TGI is more than 100 µM.

On to `Cc1cc(S(=O)(=O)Nc2n[nH]c(Nc3ccccc3)n2)c(SCC(=O)O)cc1Cl`, for which the TGI was more than 100 µM.

Molecule `NCCN(CCN(C(=O)Nc1ccccc1)c1ccccc1)C(=O)Nc1ccccc1` displayed a TGI of 43.1 µM.

`C[C@H](c1ccccc1)N1C(=O)[C@@H](OCc2ccccc2)[C@H]1[C@H](COC(=O)COCc1ccccc1)OCc1ccccc1` showed a TGI of more than 100 µM.

The next test deals with SW-620 colon. The experiment in a line: NCI tumour cell line growth inhibition, 48 h.
The molecule `Cc1ccc2c(c1C)CC1(Cc3c(C)ccc(C)c3C1=O)C2=O` (stereo unspecified) registered a TGI of more than 100 µM.

As to `O=CN1CCN(C(=O)c2ccco2)C1=S`, the TGI was more than 46.5 µM.

As to `CC(=O)C1(O)CCC2(O)C3(O)CC=C4CC(O)CCC4(C)C3CC(OC(=O)c3ccc(O)cc3)C12C` (stereo unspecified), the TGI is more than 100 µM.

For the molecule `Clc1ccc(OCc2nnc(COc3ccc(OCc4nnc(COc5ccc(Cl)cc5Cl)o4)c(Cl)c3)o2)c(Cl)c1`, the TGI was more than 100 µM.

For the molecule `O=C1/C(=C/c2ccncc2)C(n2cccc2)c2c(Br)sc(Br)c21` (stereo unspecified), the TGI came out at 3.55 µM.

With `C=C1CC(COc2ccc3c(C)c(C)c(=O)oc3c2C)(c2ccccc2)OC1=O` (stereo unspecified), the TGI came to 3.5 µM.

For `CC(=O)OCC(=O)O[C@@H]1[C@H]2[C@@H](OC(=O)c3ccccc3)[C@@H](C)C[C@]2(O)[C@H](OC(C)=O)[C@@]2(C)C[C@]1(OC(C)=O)C[C@H]1C(=O)C(C)(C)[C@@H](OC(C)=O)[C@@H]12`, the TGI was more than 25 µM.

Regarding `O=C(Sc1c(-c2ccccc2)c(=O)n(-c2ccccc2)c(=S)n1-c1ccccc1)c1ccco1`, the TGI is more than 100 µM.

Consider `Cn1nc2c(c1N)Cc1c(nn(C)c1N)-c1ccccc1-2`, for which the TGI is more than 100 µM.

The molecule `O=c1ccn(-c2ccccn2)c(=O)n1-c1ccccn1` registered a TGI of more than 100 µM.

`O=C1NC(=S)NC(=O)C1C(c1ccc(Cl)cc1)C1C(=O)NC(=S)NC1=O` yielded a TGI of more than 100 µM.

As to `COC(=O)C1=C(C(=O)OC)SC(=C2SC3=C(SC(=C4SCCS4)S3)S2)S1`, the TGI is more than 100 µM.

Consider `CCC(=O)Nc1ccc(NS(=O)(=O)c2ccc(Cl)cc2)cc1`, for which the TGI is more than 100 µM.

The molecule `COc1cccc(N2C(=O)CS(=O)(=O)C2c2cccc(Oc3ccccc3)c2)c1` (stereo unspecified) registered a TGI of more than 100 µM.

With `O=C(/C=C\Nc1ccccc1O)C(F)(F)F`, the TGI is more than 100 µM.

Turning to `CC1(C)OC[C@@H](C[C@H](O)COCc2ccccc2)O1`, the TGI is more than 100 µM.

Molecule `NC(N)=NS(=O)(=O)c1ccc(NC(=O)c2cccc3c(NNc4ccc(S(N)(=O)=O)cc4)c4ccccc4nc23)cc1` gave a TGI of more than 100 µM.

Consider `CC(=O)N(C)c1ccc(Nc2ccnc3ccc4nn(C)nc4c23)cc1`, for which the TGI was more than 100 µM.

As for `Nc1nncc2[nH]cnc12`, the TGI was more than 100 µM.

For `S=c1[nH]nc(Cn2c3ccc(Br)cc3c3nc4ccccc4nc32)n1C1CCCCC1`, the TGI is more than 100 µM.

As to `COc1ccc2c(c1)-c1c(c3cc(OC)ccc3n1CCN(C)C)CC2`, the TGI was 31.1 µM.

For `COc1ccc(C2=C(Cl)C(=O)O/C2=C\c2ccc(OC)c(Br)c2)cc1Cl`, the TGI is more than 100 µM.

The molecule `CNC(=S)NNc1ncnc2c1c(-c1ccc(Cl)cc1)cn2-c1ccc(C)cc1` returned a TGI of 21.7 µM.

The molecule `CCCCCCCCCCCCNC(=O)CCC(NC(=O)c1ccc(N(C)Cc2cnc3nc(N)nc(N)c3n2)cc1)C(=O)NCCCCCCCCCCCC` (stereo unspecified) displayed a TGI of more than 100 µM.

For `Clc1cc(C(c2cc(Cl)sc2Cl)c2cc(Cl)sc2Cl)c(Cl)s1`, the TGI is more than 100 µM.

Consider `COc1cc(OC)cc(Oc2nc3cc(F)c(F)cc3nc2-c2ccccc2)c1`, for which the TGI is more than 100 µM.

Consider `Cc1cc(S(=O)(=O)Nc2n[nH]c(Nc3ccccc3)n2)c(SCC(=O)O)cc1Cl`, for which the TGI is more than 100 µM.

Molecule `NCCN(CCN(C(=O)Nc1ccccc1)c1ccccc1)C(=O)Nc1ccccc1` returned a TGI of 48.3 µM.

Turning to `C[C@H](c1ccccc1)N1C(=O)[C@@H](OCc2ccccc2)[C@H]1[C@H](COC(=O)COCc1ccccc1)OCc1ccccc1`, the TGI is more than 100 µM.
